Each structure is given as a SMILES string.

Sequence of human LPAR1 (Q92633 whole entry): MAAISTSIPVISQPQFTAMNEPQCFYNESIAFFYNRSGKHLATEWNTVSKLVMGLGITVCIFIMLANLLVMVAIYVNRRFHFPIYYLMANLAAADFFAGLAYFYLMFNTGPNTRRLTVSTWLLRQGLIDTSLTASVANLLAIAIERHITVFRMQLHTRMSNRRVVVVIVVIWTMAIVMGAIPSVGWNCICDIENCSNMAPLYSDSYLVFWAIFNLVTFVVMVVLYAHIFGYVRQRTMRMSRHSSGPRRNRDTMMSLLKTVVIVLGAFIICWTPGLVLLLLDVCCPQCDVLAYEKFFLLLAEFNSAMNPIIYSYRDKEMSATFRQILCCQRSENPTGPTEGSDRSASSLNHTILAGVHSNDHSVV

The test concerns the target human LPAR1 (Homo sapiens (Human), UniProt Q92633). Description: LPAR1 intracellular calcium mobilization assay (antagonist mode, FLIPR). The class given is cell-based. The following applies: CHO-K1 EDG2 cells expressing human LPAR1, LPA 18:2 at EC80 (100 nM), test compound 0.5 nM to 10 μM. On the technique in general: A change in cytosolic calcium serves as a functional read-out for many receptors and channels.
As for `C[C@@H](OC(=O)Nc1c(-c2ccc(NC(=O)[C@H]3[C@H](C4CC4)C3(F)F)cn2)nnn1C)c1cc(F)cnc1F` (mixture of isomers) [Compound 248, (R)-1-(2,5-difluoropyridin-3-yl)ethyl (4-(5-((1RS,2SR)-3,3-difluoro-[1,1′-bi(cyclopropane)]-2-carboxamido)pyridin-2-yl)-1-methyl-1H-1,2,3-triazol-5-yl)carbamate], the half-maximal effective concentration (EC50) is 29.8 nM.
As to `C[C@@H](OC(=O)Nc1c(-c2ccc(NC(=O)c3cnc(C(F)(F)F)nc3)cn2)nnn1C)c1cc(F)cnc1Cl` [Compound 290, (R)-1-(2-chloro-5-fluoropyridin-3-yl)ethyl (1-methyl-4-(5-(2-(trifluoromethyl)pyrimidine-5-carboxamido)pyridin-2-yl)-1H-1,2,3-triazol-5-yl)carbamate], the concentration giving a half-maximal response (EC50) amounted to 10.9 nM.
As for `C[C@@H](OC(=O)Nc1c(-c2ccc(NC(=O)c3ccc(Cl)nn3)cn2)nnn1C)c1cc(F)cnc1F` [Compound 250, (R)-1-(2,5-difluoropyridin-3-yl)ethyl (4-(5-(6-chloropyridazine-3-carboxamido)pyridin-2-yl)-1-methyl-1H-1,2,3-triazol-5-yl)carbamate], the EC50 came out at 276 nM.
The value for `C[C@@H](OC(=O)Nc1c(-c2ccc(NC(=O)C3(C(F)(F)F)CC3)cn2)nnn1C)c1cccnc1Cl` [Compound 55, (R)-1-(2-chloropyridin-3-yl)ethyl (1-methyl-4-(5-(1-(trifluoromethyl)cyclopropane-1-carboxamido)pyridin-2-yl)-1H-1,2,3-triazol-5-yl)carbamate] was 478 nM.
The value for `C[C@@H](OC(=O)Nc1c(-c2ccc(NC(=O)C34CC(O)(C3)C4)cn2)nnn1C)c1cccnc1Cl` [Compound 117, (R)-1-(2-chloropyridin-3-yl)ethyl (4-(5-(3-hydroxybicyclo[1.1.1]pentane-1-carboxamido)pyridin-2-yl)-1-methyl-1H-1,2,3-triazol-5-yl)carbamate] was 1140 nM.
The value for `C[C@@H](OC(=O)Nc1c(-c2ccc(NC(=O)[C@H]3[C@H](c4ccccc4)C3(F)F)cn2)nnn1C)c1cc(F)cnc1F` (mixture of isomers) [Compound 247, (R)-1-(2,5-difluoropyridin-3-yl)ethyl (4-(5-((1RS,3RS)-2,2-difluoro-3-phenylcyclopropane-1-carboxamido)pyridin-2-yl)-1-methyl-1H-1,2,3-triazol-5-yl)carbamate] was 13 nM.
As for `CC1CC1(C#N)C(=O)Nc1ccc(-c2nnn(C)c2NC(=O)O[C@H](C)c2cccnc2Cl)nc1` (stereo partly drawn) [Compound 148, (R)-1-(2-chloropyridin-3-yl)ethyl (4-(5-(1-cyano-2-methylcyclopropane-1-carboxamido)pyridin-2-yl)-1-methyl-1H-1,2,3-triazol-5-yl)carbamate], the concentration for a half-maximal effect (EC50) was determined as 30.4 nM.
In the case of `C[C@@H](OC(=O)Nc1c(-c2ccc(NC(=O)[C@@H]3C[C@H]3c3ccccc3)cn2)nnn1C)c1cccnc1Cl` [Compound 197, (R)-1-(2-chloropyridin-3-yl)ethyl (1-methyl-4-(5-((1R,2R)-2-phenylcyclopropane-1-carboxamido)pyridin-2-yl)-1H-1,2,3-triazol-5-yl)carbamate] it was 5.2 nM; in that of `C[C@@H](OC(=O)Nc1c(-c2ccc(NC(=O)[C@@H]3CCC3(F)F)cn2)nnn1C)c1cccnc1Cl` [Compound 90, (R)-1-(2-chloropyridin-3-yl)ethyl (4-(5-((S)-2,2-difluorocyclobutane-1-carboxamido)pyridin-2-yl)-1-methyl-1H-1,2,3-triazol-5-yl)carbamate], 73.5 nM; in that of `C[C@@H](OC(=O)Nc1c(-c2ccc(NC(=O)C3CC4(CCC4)C3)cn2)nnn1C)c1cccnc1Cl` [Compound 73, (R)-1-(2-chloropyridin-3-yl)ethyl (1-methyl-4-(5-(spiro[3.3]heptane-2-carboxamido)pyridin-2-yl)-1H-1,2,3-triazol-5-yl)carbamate], 17.3 nM.
In the case of `C[C@@H](OC(=O)Nc1c(-c2ccc(NC(=O)[C@H]3C[C@H](NCC(F)(F)F)C3)cn2)nnn1C)c1cccnc1Cl` [Compound 306, (R)-1-(2-chloropyridin-3-yl)ethyl (1-methyl-4-(5-((1r,3R)-3-((2,2,2-trifluoroethyl)amino)cyclobutane-1-carboxamido)pyridin-2-yl)-1H-1,2,3-triazol-5-yl)carbamate] it was 99.7 nM; in that of `C[C@@H](OC(=O)Nc1c(-c2ccc(NC(=O)CC3OCCO3)cn2)nnn1C)c1cccnc1Cl` [Compound 196, (R)-1-(2-chloropyridin-3-yl)ethyl (4-(5 (2-(1,3-dioxolan-2-yl)acetamido)pyridin-2-yl)-1-methyl-1H-1,2,3-triazol-5-yl)carbamate], 1030 nM.
The value for `C[C@@H](OC(=O)Nc1c(-c2ccc(NC(=O)c3cnn(C)c3)cn2)nnn1C)c1cccnc1Cl` [Compound 112, (R)-1-(2-chloropyridin-3-yl)ethyl (1-methyl-4-(5-(1-methyl-1H-pyrazole-4-carboxamido)pyridin-2-yl)-1H-1,2,3-triazol-5-yl)carbamate] was 1400 nM; that for `C[C@@H](OC(=O)Nc1c(-c2ccc(NC(=O)c3ccc(Cl)nc3)cn2)nnn1C)c1cccnc1F` [Compound 292, (R)-1-(2-fluoropyridin-3-yl)ethyl (4-(5-(6-chloronicotinamido)pyridin-2-yl)-1-methyl-1H-1,2,3-triazol-5-yl)carbamate] was 143 nM.
As for `C[C@@H](OC(=O)Nc1c(-c2ccc(NC(=O)C3(N)CC(F)(F)C3)cn2)nnn1C)c1cccnc1Cl` [Compound 310, (R)-1-(2-chloropyridin-3-yl)ethyl (4-(5-(1-amino-3,3-difluorocyclobutane-1-carboxamido)pyridin-2-yl)-1-methyl-1H-1,2,3-triazol-5-yl)carbamate], the half-maximal effective concentration (EC50) came to 454 nM.
For `C[C@@H](OC(=O)Nc1c(-c2ccc(NC(=O)C3CCO3)cn2)nnn1C)c1cccnc1Cl` (stereo partly drawn) [Compound 54, (R)-1-(2-chloropyridin-3-yl)ethyl (1-methyl-4-(5-(oxetane-2-carboxamido)pyridin-2-yl)-1H-1,2,3-triazol-5-yl)carbamate], the EC50 was determined as 7860 nM.
The value for `C[C@@H](OC(=O)Nc1c(-c2ccc(NC(=O)[C@]3(C)C[C@H](C#N)C3)cn2)nnn1C)c1cccnc1Cl` [Compound 121, (R)-1-(2-chloropyridin-3-yl)ethyl (4-(5-((1s,3S)-3-cyano-1-methylcyclobutane-1-carboxamido)pyridin-2-yl)-1-methyl-1H-1,2,3-triazol-5-yl)carbamate] was 264 nM; that for `C[C@@H](OC(=O)Nc1c(-c2ccc(NC(=O)C3(C(F)F)CC(F)(F)C3)cn2)nnn1C)c1cccnc1Cl` [Compound 119, (R)-1-(2-chloropyridin-3-yl)ethyl (4-(5-(1-(difluoromethyl)-3,3-difluorocyclobutane-1-carboxamido)pyridin-2-yl)-1-methyl-1H-1,2,3-triazol-5-yl)carbamate] was 49.9 nM.
In the case of `C[C@@H](OC(=O)Nc1c(-c2ccc(NC(=O)c3ccc(C(F)(F)F)nc3)cn2)nnn1C)c1cc(F)cnc1Cl` [Compound 288, (R)-1-(2-chloro-5-fluoropyridin-3-yl)ethyl (1-methyl-4-(5-(6-(trifluoromethyl)nicotinamido)pyridin-2-yl)-1H-1,2,3-triazol-5-yl)carbamate] it was 33.5 nM; in that of `Cc1cnccc1C(=O)Nc1ccc(-c2nnn(C)c2NC(=O)O[C@H](C)c2cccnc2Cl)nc1` [Compound 101, (R)-1-(2-chloropyridin-3-yl)ethyl (1-methyl-4-(5-(3-methylisonicotinamido)pyridin-2-yl)-1H-1,2,3-triazol-5-yl)carbamate], 1040 nM.
`C[C@@H](OC(=O)Nc1c(-c2ccc(NC(=O)C3(Cl)CC3)cn2)nnn1C)c1cccnc1Cl` [Compound 40, (R)-1-(2-chloropyridin-3-yl)ethyl (4-(5-(1-chlorocyclopropane-1-carboxamido)pyridin-2-yl)-1-methyl-1H-1,2,3-triazol-5-yl)carbamate]: the concentration for a half-maximal effect (EC50) was 75.2 nM.
In the case of `C[C@@H](OC(=O)Nc1c(-c2ccc(NC(=O)[C@@H]3C[C@H]3C(F)F)cn2)nnn1C)c1cc(F)cnc1F` (mixture of isomers) [Compound 216, (R)-1-(2,5-difluoropyridin-3-yl)ethyl (4-(5-((1RS,2RS)-2-(difluoromethyl)cyclopropane-1-carboxamido)pyridin-2-yl)-1-methyl-1H-1,2,3-triazol-5-yl)carbamate] it was 22.4 nM.
In the case of `C[C@@H](OC(=O)Nc1c(-c2ccc(NC(=O)c3cnc(C4CC4)nc3)cn2)nnn1C)c1cc(F)cnc1F` [Compound 283, (R)-1-(2,5-difluoropyridin-3-yl)ethyl (4-(5-(2-cyclopropylpyrimidine-5-carboxamido)pyridin-2-yl)-1-methyl-1H-1,2,3-triazol-5-yl)carbamate] it was 82.4 nM; in that of `CC(=O)Nc1ccc(-c2nnn(C)c2NC(=O)O[C@H](CF)c2cccc(F)c2)nc1` [Compound 25, (S)-2-fluoro-1-(3-fluorophenyl)ethyl (4-(5-acetamidopyridin-2-yl)-1-methyl-1H-1,2,3-triazol-5-yl)carbamate], 2270 nM; in that of `C[C@@H](OC(=O)Nc1c(-c2ccc(NC(=O)c3ccnc(F)c3F)cn2)nnn1C)c1cccnc1F` [Compound 294, (R)-1-(2-fluoropyridin-3-yl)ethyl (4-(5-(2,3-difluoroisonicotinamido)pyridin-2-yl)-1-methyl-1H-1,2,3-triazol-5-yl)carbamate], 238 nM.
As to `C[C@@H](OC(=O)Nc1c(-c2ccc(NC(=O)C3(C#N)CC4(CC4)C3)cn2)nnn1C)c1cccnc1Cl` [Compound 87, (R)-1-(2-chloropyridin-3-yl)ethyl (4-(5-(5-cyanospiro[2.3]hexane-5-carboxamido)pyridin-2-yl)-1-methyl-1H-1,2,3-triazol-5-yl)carbamate], the half-maximal effective concentration (EC50) was determined as 16.1 nM.
On to `C[C@@H](OC(=O)Nc1c(-c2ccc(NC(=O)C3OCCO3)cn2)nnn1C)c1cccnc1Cl` [Compound 153, (R)-1-(2-chloropyridin-3-yl)ethyl (4-(5-(1,3-dioxolane-2-carboxamido)pyridin-2-yl)-1-methyl-1H-1,2,3-triazol-5-yl)carbamate], for which the concentration giving a half-maximal response (EC50) was found to be 933 nM.

A word on the EC50: it is the midpoint of the concentration-response curve.
